Assay results published in PMC8179002, “Inhibitors of thiol-mediated uptake” (Chemical Science, 2020).
Like-named read-outs stand apart in the source and are kept apart here.

Columns and labels:
HeLa Kyoto cells [1] = details: cited from earlier work
[2] = system: cellular uptake of 1 in HeLa Kyoto cells; assay: cells; type: cell-based; details: HeLa; for MIC, inhibition of cellular uptake of 1 / IC50 / minimal effective concentration: removal, tinc 0.5 h with 1 (10 µM); for IC50: read-out: IC50, inhibition of cellular uptake of 1; for minimal effective concentration: read-out: MIC, inhibition of cellular uptake of 1
Method: (§1) With COCs 1 and 2 as cell-penetrating reporters, a fully automated, fluorescent microscopy image-based high-content high-throughput (HCHT)[19] inhibitor screening assay was developed. HeLa cells in multiwell plates are incubated with a reporter at constant and inhibitors at varying concentrations and incubation times. Hindered reporter uptake then causes decrease of fluorescence inside of cells (Fig. 3a). Automated data analysis[19] was established to extract average fluorescence intensity per cell and, at the same time, cell viability from propidium iodide negative nuclei count (Fig. 3 and S3–S6 ^†). Standard assay conditions consisted of pre-incubation of HeLa cells with inhibitors for different periods of time, followed by the removal of inhibitors and the addition of reporters, thus excluding possible interactions between the two in the extracellular environment. In alternative co-incubation conditions, inhibitors were not removed before the addition of reporters to allow for eventual interactions between the two.
4. High-Content High-Throughput (HCHT) Inhibitor Screening
4.1. General Procedure for HCHT Inhibitor Screening
4.1.1. Pre-Incubation of Inhibitors
HeLa Kyoto cells were seeded at 1.2 ×10^4 cells/well in FluoroBrite DMEM + 10% FBS on μ-Plate 96-well Black ibiTreat sterile and kept at 37 °C with 5% CO2 overnight. Next day, serial dilutions of the inhibitors in PBS (10x final concentration), reporter 1 or 2 (100 μM in PBS) and a solution of Hoechst 33342 (100 μg/mL) and PI (10 μg/mL) in PBS were prepared freshly in a 96-well V-bottom plate. Then, cells were washed with PBS ([…]) and the media was exchanged to FluoroBrite DMEM (4 x 150 μL/well) using a plate washer (Biotek EL406®), keeping always a final volume of 135 μL/well. The inhibitor solutions from the V-bottom plate were added to the cells (15 μL/well, 10x final concentration in PBS) using an electronic multichannel pipettes to reach a final volume of 150 μL/well. Cells were incubated for the time of interest (for details of each inhibitors, see Section 4.3 and 4.4) at 37 °C with 5%
CO2. After this, cells were washed again using the plate washer and reporter solution 1 or 2 from the V-bottom plate was added (15 μL/well) using an electronic multichannel pipettes to reach a final volume of 150 μL/well and a final concentration of 10 μM, except for the control wells, where only PBS was added (15 μL/well). After 30 min of incubation at 37 °C with 5% CO2, the plate was washed again using the plate washer. Then, the solution of Hoechst 33342 and PI from V-bottom plate was added (15 μL/well) using an electronic multichannel pipettes to reach a final volume of 150 μL/well. After 15 min of incubation at 37 °C with 5% CO2, the plate was washed one last time and the cells were kept in clean FluoroBrite DMEM. During imaging, samples were kept at 37 °C with 5% CO2 in the microscope.
4.1.2. Co-Incubation of Inhibitors and Reporters […]
serial dilutions of the inhibitors in PBS (10x final concentration), reporter 1 or 2 (110 μM in […]
freshly in a 96-well V-bottom plate. Then, cells were washed with the plate washer. The inhibitor solutions from the V-bottom plate were added to the cells (15 μL/well, 10x final concentration in PBS) using an electronic multichannel pipettes to reach a final volume of 150 μL/well. Cells were incubated for the time of interest (for details of each inhibitors, see Section 4.3 and 4.4) at 37 °C with 5% CO2. Reporter solution 1 or 2 from V-bottom plate was then added (15 μL/well) using an electronic multichannel pipettes to reach a final volume of 165 μL/well and a final concentration of 10 μM 30 min before the next washing process, except for the control wells, where only PBS was added (15 μL/well). The plate was washed again using the plate washer. The solution of Hoechst 33342 and PI from V-bottom plate was added (15 μL/well) using an electronic multichannel pipettes to reach a final volume of 150 μL/well. After […]

HeLa Kyoto cells [3] = assay: Relative cell viability in HCHT screening (propidium iodide negative nuclei count); type: cell-based; details: HeLa, removal, tinc 0.5 h with 1 (10 µM), read-out: GI50, concentration causing 50% cell growth inhibition
Method: as §1
(§2) To be able to extract the fluorescent integrated intensity information (sum of the intensities of all the pixels included in the mask) from the green channel for live cell only, the image analysis pipeline contains several steps of cell filtering and selection:
(§3) 1) Firstly, PI is used to stain any remaining nuclei of dead cell. In the analysis pipeline, all the “dead” nuclei are detected based on their fluorescent intensity in the PI channel (Figure […]
(§4) Fig. S4 (A) PI positive nuclei mask (fluorescent intensity threshold of 1000). (B) Overlap image of dead nuclei mask and original all cell body mask. (C) Resulting cell mask after removing any cell marked by a dead nucleus, new mask is called “Live Cell”. Scale bar: 50 μm.
(§5) 2) Elimination of non-full cells from the border of the image is performed, to avoid inaccurate fluorescent integrated intensity quantification (fluorescent integrated intensity = sum of intensity of all the pixel of the object) (Figure S5).
(§6) (1 picture or pasted object on this page, not shown here)
(§7) 4.3. HCHT Inhibitor Screening with ETP as Reporter […]
(§8) Relative cell viability (RV) for each condition in the presence of inhibitors were calculated using the count value of living cells by dividing the count value of living cells with addition of reporter 1, Hoechst 33342 and PI, for each set of experiments. Duplicates were performed for each condition. The resulting dependence of the relative cell viability (RVrel) to the concentration of inhibitors (cinhibitor) was plotted and fitted with Equation (S2) to retrieve the concentration causing 50% cell growth inhibition (GI50) value and the Hill coefficient (n).
(§9) RVrel = 1 / (1 + (GI50 / cinhibitor)n) (S2)
(§10) Note: Reporter 1 were not toxic for 1 h at 10 μM.S2 Also in this study, the count value of living cells with addition of reporter 1, Hoechst 33342 and PI is always similar to that of living cells with only addition of Hoechst 33342 and PI.
as §8, with “with” for “in the presence of”, “2,” for “1,”
(§11) Note: Reporter 2 were not toxic for 24 h at 10 μM.S3 Also in this study, the count value of living cells with addition of reporter 2, Hoechst 33342 and PI is always similar to that of living cells with only addition of Hoechst 33342 and PI.
(§12) 4.4.1. Screening with Disulfides as Inhibitors
(§13) 4.4.1.1. Screening with ETP as Inhibitors
(§14) Fig. S35 Automatically analyzed HCHT data showing fluorescence intensity (filled symbols) and relative viability (empty symbols) of HeLa cells after pre-incubation with 3 for 1 h (blue […]

[4] = as above; type: cell-based; details: human; for GI50: HeLa, removal, tinc 0.5 h with 1 (10 µM), read-out: GI50, concentration causing 50% cell growth inhibition
Method: as §1, §2, §3, §4, §5, §6, §7, §8, §9, §10
as §8, with “with” for “in the presence of”, “2,” for “1,”
as §11, §12, §13, §14

thiol-mediated uptake = assay: Inhibition of thiol-mediated uptake, reporter and protocol not stated; type: cell-based; details: preliminary results; note 34
[5] = HeLa Kyoto, 1 h, tpre 1 h with inhibitor
[6] = HeLa Kyoto, tpre 1 h with inhibitor
[7] = HeLa Kyoto, 2 h, tpre 2 h with inhibitor
[8] = HeLa Kyoto, 4 h, tpre 4 h with inhibitor
[9] = HeLa Kyoto, tpre 2 h with inhibitor
[10] = HeLa Kyoto, tpre 4 h with inhibitor
[11] = GI50, concentration causing 50% cell growth inhibition

SMILES	minimal effective concentration [2, 5]	IC50 [2, 6]	GI50 ([4]; tpre 1 h with inhibitor)	minimal effective concentration [2, 7]	minimal effective concentration [2, 8]	IC50 [2, 9]	IC50 [2, 10]	GI50 ([4]; tpre 2 h with inhibitor)	GI50 ([4]; tpre 4 h with inhibitor)	also measured
CCN1C(=O)C2SSC1C(=O)N2CC(=O)NCCNC(=S)Nc1ccc(-c2c3ccc(=O)cc-3oc3cc(O)ccc23)c(C(=O)O)c1 (stereo not shown) [compound 1]	–	–	–	–	–	–	–	–	–	Toxicity of reporter (HeLa Kyoto cells [1]; 1 h at 10 μM, ref S2): not toxic
O=C(NCCNC(=S)Nc1ccc(-c2c3ccc(=O)cc-3oc3cc(O)ccc23)c(C(=O)O)c1)c1ccc2c(c1)SSSSS2 [compound 2]	–	–	–	–	–	–	–	–	–	Toxicity of reporter (HeLa Kyoto cells [1]; 24 h at 10 μM, ref S3): not toxic
[O-][S+]1CC(O)C(O)CS1 (stereo not shown) [compound 22]	–	–	–	–	–	–	–	–	–	MIC, inhibition of cellular uptake of 1 ([2]; tpre 1 h with inhibitor): 800 µM; IC50 ([2]; tpre 1 h with inhibitor): > 5000 µM; MIC, inhibition of cellular uptake of 1 ([2]; tpre 2 h with inhibitor): 600 µM; IC50 ([2]; tpre 2 h with inhibitor): > 2000 µM; MIC, inhibition of cellular uptake of 1 ([2]; tpre 4 h with inhibitor): 300 µM; IC50 ([2]; tpre 4 h with inhibitor): > 2000 µM; GI50 (HeLa Kyoto cells [3]; tpre 1 h with inhibitor): 4400 ± 200 µM; GI50 (HeLa Kyoto cells [3]; tpre 2 h with inhibitor): > 5000 µM; GI50 (HeLa Kyoto cells [3]; tpre 4 h with inhibitor): > 2000 µM
CNC(=O)[C@H](CS[S+]([O-])C[C@H](NC(=O)OC(C)(C)C)C(=O)NC)NC(=O)OC(C)(C)C (stereo partly shown) [compound 26]	> 1000 µM	> 1000 µM	> 1000 µM	–	–	–	–	–	–	Inhibition of uptake of reporter 1, in words [2]: disappointing
O=C(O)CCCCC1CCS[S+]1[O-] (stereo not shown) [compound 27]	> 2000 µM	> 2000 µM	> 5000 µM	> 2000 µM	> 2000 µM	> 2000 µM	> 2000 µM	> 5000 µM	1800 ± 300 µM	–
O=C(O)C1CSSC1 [compound 28]	> 2000 µM	> 2000 µM	> 2000 µM	> 2000 µM	> 2000 µM	> 2000 µM	> 2000 µM	> 2000 µM	> 2000 µM	–
O[C@@H]1CSSC[C@@H]1O [compound 29]	> 2000 µM	> 2000 µM	> 2000 µM	> 2000 µM	> 2000 µM	> 2000 µM	> 2000 µM	> 2000 µM	> 2000 µM	–
O=C(O)CCCCC1CCSS1 (stereo not shown) [compound 30]	> 2000 µM	> 2000 µM	–	> 2000 µM	> 2000 µM	> 2000 µM	> 2000 µM	–	–	GI50 at 1 h [4, 11]: > 2000 µM; GI50 at 2 h [4, 11]: > 2000 µM; GI50 at 4 h [4, 11]: > 2000 µM
O=c1c2ccccc2[se]n1-c1ccccc1 [ebselen]	–	–	–	–	–	–	–	–	–	Inhibition of thiol-mediated uptake, in words (thiol-mediated uptake): inhibits
